Laboratory results reported in patent US20130165508A1, “METHODS AND FORMULATIONS FOR TREATING INEFFECTIVE OR DECREASED ESOPHAGAL MOTILITY” (priority 2007, published 2013).

Columns and labels:
muscarinic M2 receptors = target: T1, muscarinic M2 receptors (Homo sapiens, UniProt P08172); details: cited from earlier work
T1 sequence (P08172 1-466): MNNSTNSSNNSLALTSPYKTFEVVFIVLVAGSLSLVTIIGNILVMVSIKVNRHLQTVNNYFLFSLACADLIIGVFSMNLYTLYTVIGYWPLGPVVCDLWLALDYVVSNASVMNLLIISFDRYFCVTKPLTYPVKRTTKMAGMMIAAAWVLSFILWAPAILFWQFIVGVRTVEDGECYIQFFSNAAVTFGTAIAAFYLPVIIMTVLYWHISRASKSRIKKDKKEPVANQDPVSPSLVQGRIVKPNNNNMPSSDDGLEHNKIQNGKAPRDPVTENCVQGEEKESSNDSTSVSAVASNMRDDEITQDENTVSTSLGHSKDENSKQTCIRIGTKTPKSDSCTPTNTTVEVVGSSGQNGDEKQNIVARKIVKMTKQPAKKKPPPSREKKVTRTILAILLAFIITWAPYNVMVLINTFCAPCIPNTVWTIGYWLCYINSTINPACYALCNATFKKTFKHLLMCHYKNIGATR

[1] = Gastrointestinal absorption of oral bethanechol; assay type: in vivo; details: 50 mg oral dosage at about 22 percent absorption
Procedure: Thus, to achieve the beneficial effects of bethanechol on esophageal motility, systemic dosages in the range of 25-50 mg are required. Further, absorption of bethanechol at these dosage levels by the stomach and lower GI tract results in systemic distribution to other areas of the body such as the urinary tract and colon. A 50 mg oral dosage, for example, is believed to be about 22 percent absorbed in the stomach and intestines, which are rich in blood supply. This would result in a systemic level of about 11 mg of bethanechol. As described herein, however, bethanechol delivered locally to the pharynx and esophagus in a form that can more easily be absorbed by the mucosal lining of the pharynx and esophagus and delivered to the muscarinic receptors, principally the M2 receptors, can provide esophageal motility benefits, as well as increased salivation, while minimizing or avoiding systemic absorption and reducing or eliminating undesirable side effects. Enhancing the reduction or elimination of undesirable side effects is the fact that the esophagus has low vascularization, thus inhibiting the systemic absorption of bethanechol.

[2] = test system: patients with severe ineffective esophageal motility; details: 50 mg oral doses, after 15 and 40 minutes; cited from earlier work
[3] = Expected absorption of bethanechol from ten 0.1 ml sprays with absorption enhancer; assay type: in vivo
From the text: An exemplary method comprises treating ineffective esophageal motility while reducing or virtually eliminating an undesirable side effect, particularly a parasympathetic nervous system side effect, in a mammal in need of treatment by topically administering to the pharynx and esophagus of the mammal a therapeutically effective amount of bethanechol and an absorption enhancer to facilitate esophageal peristalsis so that the undesirable side effect, particularly the parasympathetic nervous system side effect, is reduced while maintaining the therapeutic esophageal peristaltic effect. A further exemplary method comprises delivering an amount of bethanechol of between about 3 mg and about 15 mg. A further exemplary method comprises introducing about ten 0.1 ml sprays comprising 5 mg bethanechol per ml and an absorption enhancer. Of the total 5 mg introduced, it is expected about 25 percent of the bethanechol, or about 1.25 mg, is adsorbed. The remaining 3.75 mg would proceed into the stomach and intestines, and, at about a 22 percent absorption rate would result in only about 0.8 mg bethanechol being systemically adsorbed, far below the threshold necessary to produce undesirable side effects.

[4] = cited from earlier work
acetylcholinesterase = acetylcholinesterase (Homo sapiens, UniProt P22303); details: cited from earlier work
[5] = systemic dosing; cited from earlier work
[6] = cited from earlier work; remark: listed apart in the source

Chain of acetylcholinesterase (P22303 32-614, species assumed): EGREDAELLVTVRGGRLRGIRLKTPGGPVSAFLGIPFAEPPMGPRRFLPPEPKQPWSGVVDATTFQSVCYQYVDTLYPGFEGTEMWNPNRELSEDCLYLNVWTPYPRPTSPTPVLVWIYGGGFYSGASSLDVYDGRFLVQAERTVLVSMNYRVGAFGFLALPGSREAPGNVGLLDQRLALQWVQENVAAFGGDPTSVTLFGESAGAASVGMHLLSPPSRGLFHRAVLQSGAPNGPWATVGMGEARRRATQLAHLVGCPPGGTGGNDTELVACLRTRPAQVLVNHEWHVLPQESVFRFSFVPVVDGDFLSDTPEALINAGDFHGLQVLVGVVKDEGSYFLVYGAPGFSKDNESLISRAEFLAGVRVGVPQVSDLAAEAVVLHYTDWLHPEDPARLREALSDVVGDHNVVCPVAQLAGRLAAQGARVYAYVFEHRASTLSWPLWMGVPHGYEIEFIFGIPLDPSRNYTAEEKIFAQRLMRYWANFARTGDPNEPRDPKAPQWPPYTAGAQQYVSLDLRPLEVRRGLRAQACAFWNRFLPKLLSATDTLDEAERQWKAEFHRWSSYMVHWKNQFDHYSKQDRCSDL

CC(C[N+](C)(C)C)OC(N)=O (centres unmarked) [bethanechol, 2-carbamoyloxpropyl-trimethyl-ammonium chloride]
receptor selectivity (muscarinic M2 receptors): directly and selectively on the muscarinic M2 receptors
systemic level of bethanechol [1]: about 11 mg
effect on esophageal motility [2]: improve esophageal motility
bethanechol systemically adsorbed from the remaining 3.75 mg ([3]; remaining 3.75 mg in stomach and intestines at about 22 percent absorption rate): about 0.8 mg
fraction of bethanechol adsorbed from the spray ([3]; ten 0.1 ml sprays, 5 mg bethanechol per ml with absorption enhancer, total 5 mg): about 25%
amount of bethanechol adsorbed from the spray ([3]; ten 0.1 ml sprays, total 5 mg): about 1.25 mg
stability and water solubility [4]: stable, water-soluble
inactivation by acetylcholinesterase (acetylcholinesterase): not inactivated by acetylcholinesterase
undesirable side effects when provided systemically [5]: diarrhea, flushing, increased sweating, nausea, stomach pain, or gas, and, importantly, urinary urgency
fraction absorbed in the stomach and intestines ([6]; 50 mg oral dosage, "is believed"): about 22%
absorption by the mucosal lining of the gastrointestinal tract ([6]; in vivo): poorly absorbed
